Experimental findings from patent publication US5874436A, “Triphenylalkyl antimicrobial agents” (priority 1997, dated 1999) are described below.

The target of assay [1] is T1, Kinase A and Spo0F (Bacillus subtilis, UniProt P16497).
T1 construct: made in house; host or cells: E. coli (recombinant, overexpressing)
T1 sequence (P16497 1-606): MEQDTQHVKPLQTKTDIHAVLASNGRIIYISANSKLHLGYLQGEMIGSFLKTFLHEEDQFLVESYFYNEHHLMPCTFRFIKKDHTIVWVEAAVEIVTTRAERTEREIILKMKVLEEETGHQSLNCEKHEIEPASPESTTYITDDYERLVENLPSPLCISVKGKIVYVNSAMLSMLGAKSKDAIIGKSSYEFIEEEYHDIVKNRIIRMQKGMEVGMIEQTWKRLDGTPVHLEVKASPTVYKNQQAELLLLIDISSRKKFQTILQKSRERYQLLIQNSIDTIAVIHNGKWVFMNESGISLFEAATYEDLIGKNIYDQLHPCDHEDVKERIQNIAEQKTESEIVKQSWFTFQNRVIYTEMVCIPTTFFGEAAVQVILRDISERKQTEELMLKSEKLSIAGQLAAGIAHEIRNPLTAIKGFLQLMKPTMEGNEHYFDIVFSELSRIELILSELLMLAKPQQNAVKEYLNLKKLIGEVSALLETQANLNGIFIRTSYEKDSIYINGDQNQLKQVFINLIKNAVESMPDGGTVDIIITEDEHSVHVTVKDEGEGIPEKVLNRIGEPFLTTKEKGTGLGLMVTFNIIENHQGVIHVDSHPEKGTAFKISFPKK
Put plainly: Autophosphorylation of Kinase A and transphosphorylation of Spo0F assay (HPK in vitro assay). It counts as biochemical. The following applies: inhibitor concentrations from 1 to 500 μM, [32P]ATP, phosphoimager. As for the experimental part:
1. Autophosphorylation of Kinase A and Transphosphorylation of Spo0F Assay
To study the effect of the compounds of the present invention on the signal transduction process in bacteria, the inhibiting effect of the compounds on the sporulation operon proteins Kinase A and Spo0F was examined. Specifically, the inhibition of autophosphorylation of Kinase A and the transphosphorylation of Spo0F was determined in the following assays. The Spo0F response regulator is the primary substrate for phosphorylation by the protein kinase, Kin A, involved in the sporulation process in bacteria. See D. Burbulys, K. A. Trach, J. A. Hoch, Cell, 64, 545-552 (1991). Spo0F and KinA were prepared from recombinant E. coli overexpressing the proteins (J. Cavanagh et al, Amino Acids, 6, 131-140 (1994) and references therein).
The following stock reagents were either prepared and used promptly or stored at the indicated temperature:
8 X Salts : 2M KCl (5 mL), 1M MgCl2 (800 mL), 1M CaCl2 (100 mL), 10 mg/mL phenylmethylsulfonyl fluoride (200 mL), 1 M dithioreitol (50 mL), 0.25M Na2 EDTA (32 mL) and H2 O mL (-20° C.)
5×Loading Dye: 0.5M TRIS-HCl-pH 6.8 (7.5 mL), 10% SDS (2 mL) 0.1% bromophenol blue (0.5 mL), 100% glycerol (3 mL) and 12.5 M 2-mercaptoethanol (0.3 mL)
1-1.3 mg/mL KinA:15 mM TRIS-HCl, pH 8.0, 6 mM KCl; 4 mM 2-mercaptoethanol; 40% glycerol (-20° C.)
1 mg/mL Spo0F: 17.5 mM TRIS-HCl, pH 8.0; 0.7 mM KCl; 0.7 mM MgCl2; 0.7 mM CaCl2; 5mM 2-mercaptoethanol; 30% Glycerol (-20° C.)
5% Stacking Gel: 40% 29:1 acrylamide:bis acrylamide (1.25 mL), 0.5M TRIS-HCl, pH 6.8 (2.5 mL), 10% SDS (0.1 mL), D-H2 O (6.15 mL) 10% ammonium persulfate (100 mL) and TEMED (25 mL) SDS Running Buffer: TRIS-BASE (3.02 g), glycine (14.4 g) SDS (1 g), D-H2 O (to 1L)
The reaction mixture was prepared from 8×Salts (87 μL), 1M TRIS, pH 8 (118 μL), 50% glycerol (63 μL), Spo0F (14.1 μL) and KinA (7.0 μL). Microcentrifuge tubes were charged with the reaction mixture (18.5 μL) and a 1.0 mM solution of the test compound in 5% DMSO (18.5 μL), and incubated for 15 min on ice. 100 mM ATP solution (3.0 μl, containing 625 μCi [^32 P]ATP) was added, and the mixture left for 10 minutes at room temperature. The reaction was quenched with 5×loading dye (10 μL per tube) and the samples were loaded on a prepared 5% Stacking Gel, or stored on dry ice until ready for use. The prepared wells were filled with SDS Running Buffer, samples were loaded into the wells, and 80 volts were applied to the gel until the dye front reached the bottom of the stacking gel. The voltage was then increased to 250 volts until electrophoresis was complete. Radioactive bands in the gel corresponding to phosphorylated KinA and Spo0F were imaged and quantitated with a phosphoimager.
If either enzyme was inhibited (as evidenced by the absence of labelled protein in the developed gel), an IC50 was calculated by running the assay with a range of inhibitor concentrations from 1 to 500 μM. After electrophoresis of the reaction mixtures, percent inhibition was determined by measuring the concentration of radioactive phosphorus with a phosphoimager and calculating the values using a software program (BioRad Molecular Analyst).

In assay [2] the test system is selected microorganisms. Description: MIC antimicrobial assay (NCCLS microdilution broth method). Type of assay: cell-based. As for the experimental part: 2. MIC Anitimicrobial Assay
The in vitro antimicrobial activity of the compounds was determined by the microdilution broth method following the test method from the National Committee for Laboratory Standards (NCCLS). This method is described in the NCCLS Document M7-A2, Vol.10, No.8 "Methods for Dilution Antimicrobial Susceptibility Test for Bacteria that Grow Aerobically--Second Edition."
In this method two-fold serial dilutions of drug in cation supplemented Mueller-Hinton broth are added to wells in microdilution trays. The test organisms are prepared by adjusting the turbidity of actively growing broth cultures so that the final concentration of test organism after it is added to the wells is approximately 5×10^4 CFUs/well).
Following inoculation of the microdilution trays, the trays are incubated at 35° C. for 16-20 hours and then read. […] The amount of growth in the wells containing the test compound is compared with the amount of growth in the growth-control wells (no test compound) used in each tray.

Values after ≈ are worked out from the molar mass of the structure shown.

Compound `O=C(CC(c1ccccc1)(c1ccccc1)c1ccccc1)Nc1ccc(N2CCNCC2)cc1` [Example 1, 4-[4-(3,3,3-Triphenylpropanoylamino)phenyl]piperazine] had an IC50 in assay [1] of 200 µM.
On the same count and under the same terms, for `C1=C(c2ccc(OCCC(c3ccccc3)(c3ccccc3)c3ccccc3)cc2)CCNC1` [Example 2, 4-[4-(3,3,3-Triphenylpropyloxy)phenyl]-1,2,3,6-tetrahydropiperidine] the value was 170 µM.
Consider `NCCc1ccc(OCCC(c2ccccc2)(c2ccccc2)c2ccccc2)cc1` [Example 3, 2-(4-(3,3,3-triphenylpropoxy)phenyl)ethylamine], for which the IC50 in assay [1] was 14 µM. Further, the MIC in assay [2] fell in the range of 2 to 4 µg/mL (≈ 4.91 to 9.81 µM).
In assay [1], `NCc1ccc(OCCC(c2ccccc2)(c2ccccc2)c2ccccc2)cc1` [Example 4, 4-(3,3,3-triphenylpropoxy)benzylamine] registered an IC50 of 19 µM. In other words, the double-digit micromolar range.
For the compound `N=C(N)NCCc1ccc(OCCC(c2ccccc2)(c2ccccc2)c2ccccc2)cc1` [Example 5], in assay [1], the IC50 stood at 5 µM. Moreover, the MIC in assay [2] was in the range of 1 to 2 µg/mL (≈ 2.22 to 4.45 µM).
As to `NCCc1ccc(OCCC(c2ccc(Cl)cc2)(c2ccc(Cl)cc2)c2ccc(Cl)cc2)cc1` [Example 6], the IC50 in assay [1] is 150 µM.
In the case of `NCCc1cccc(OCCC(c2ccccc2)(c2ccccc2)c2ccccc2)c1` [Example 7, 2-(3-(3,3,3-triphenylpropoxy)phenyl)ethylamine], the IC50 in assay [1] is 80 µM.
As for `COc1ccc(CCN)cc1OCCC(c1ccccc1)(c1ccccc1)c1ccccc1` [Example 8, 2-(4-methoxy-3-(3,3,3-triphenylpropoxy)-phenyl)ethylamine], the IC50 in assay [1] worked out at 27 µM. For the same compound, the MIC in assay [2] turned out to be 4 µg/mL (≈ 9.14 µM).
In assay [1], `N=C(N)NCCc1ccc(OCCC(c2ccc(Cl)cc2)(c2ccc(Cl)cc2)c2ccc(Cl)cc2)cc1` [Example 9, N-(2-(4-(3,3,3-tris(4-chlorophenyl)propoxy)-phenyl)ethyl)guanidine] returned an IC50 of 21 µM. For the same compound, inhibition of growth in assay [2] (MIC) required 8 µg/mL (≈ 14.5 µM).
Regarding `N=C(N)NCCc1ccc(OCCCCC(c2ccccc2)(c2ccccc2)c2ccccc2)cc1` [Example 10], in assay [1], the IC50 was found to be 15 µM. This compound also showed an MIC in assay [2] of 2 to 4 µg/mL (≈ 4.19 to 8.37 µM).
In assay [1], `N=C(N)NCCc1ccc(OCCCC(c2ccccc2)(c2ccccc2)c2ccccc2)cc1` [Example 11] returned an IC50 of 21 µM. In other words, the double-digit micromolar range.
Turning to `O=C(O)CCc1ccc(OCCC(c2ccccc2)(c2ccccc2)c2ccccc2)cc1` [Example 12, 3-[4-(3,3,3-Triphenylpropoxy)phenyl]propionic acid], the IC50 in assay [1] was found to be 51 µM. Moreover, the MIC in assay [2] was 2 to 16 µg/mL (≈ 4.58 to 36.7 µM).
On the same counts, the results for `O=C(O)Cc1ccc(OCCC(c2ccccc2)(c2ccccc2)c2ccccc2)cc1` [Example 13, 2-[4-(3,3,3-Triphenylpropoxy)phenyl]acetic acid] are 50 µM and 8 to 16 µg/mL (≈ 18.9 to 37.9 µM).
On the same counts, the results for `O=C(O)CCc1ccc(SCCC(c2ccccc2)(c2ccccc2)c2ccccc2)cc1` [Example 14, 3-[4-(3,3,3-Triphenylpropylthio)phenyl]propionic acid] are 34 µM and 4 to 8 µg/mL (≈ 8.84 to 17.7 µM).
In assay [1], `O=C(O)CCCc1ccc(OCCC(c2ccccc2)(c2ccccc2)c2ccccc2)cc1` [Example 15, 4-[4-(3,3,3-Triphenylpropoxy)phenyl]butyric acid] gave an IC50 of 14 µM. The compound also showed a minimum inhibitory concentration (MIC) in assay [2] of 8 to 64 µg/mL (≈ 17.8 to 142 µM).
On the same counts, the results for `NCCc1ccc(NC(=O)CC(c2ccccc2)(c2ccccc2)c2ccccc2)cc1` [Example 16, N-[4-(2-Aminoethyl)phenyl]-3,3,3triphenylpropionamide] are 59 µM and 32 to 64 µg/mL (≈ 76.1 to 152 µM).
Turning to `c1ccc(C(CCOc2ccc(CCC3=NCCO3)cc2)(c2ccccc2)c2ccccc2)cc1` [Example 19, 4.5-Dihydro-2-{2-[4-(3,3,3-triphenylpropoxy)-phenyl]ethyl} oxazole], the IC50 in assay [1] is 260 µM.
Turning to `O=C(O)c1ccc(OCCC(c2ccccc2)(c2ccccc2)c2ccccc2)cc1` [Example 21, 4-(3,3,3-Triphenylpropoxy)benzoic acid], the IC50 in assay [1] amounted to 290 µM. This IC50 and that of the compound before are within 1.5-fold of each other.
Compound `O=C(O)C(O)c1ccc(OCCC(c2ccccc2)(c2ccccc2)c2ccccc2)cc1` (centres unmarked) [Example 37, 2-[4-(3,3,3-Triphenylpropoxy)phenyl]glycolic acid] gave an IC50 in assay [1] of 73 µM.
Compound `O=C(O)CCc1ccccc1OCCC(c1ccccc1)(c1ccccc1)c1ccccc1` [Example 38, 3-[2-(3,3,3-Triphenylpropoxy)phenyl]propionic acid] yielded an IC50 in assay [1] of 27 µM.
The same measure, in the same setting: under `c1ccc(C(CCOc2ccc(-c3nnn[nH]3)cc2)(c2ccccc2)c2ccccc2)cc1` [Example 39, 5-[4-(3,3,3-Triphenylpropoxy)phenyl]-1H-tetrazole] stands 110 µM; under `NCCCc1ccc(SCCC(c2ccccc2)(c2ccccc2)c2ccccc2)cc1` [Example 40, 3-[4-(3,3,3-Triphenylpropylthio)phenyl]propylamine], 13 µM; under `O=C1NC(=O)C(c2ccc(OCCC(c3ccccc3)(c3ccccc3)c3ccccc3)cc2)S1` (centres unmarked) [Example 41, 5-[4-(3,3,3-Triphenylpropoxy)phenyl]thiazolidine-2,4-dione], 18 µM.
Consider `O=C(O)c1c(O)cccc1OCCC(c1ccccc1)(c1ccccc1)c1ccccc1` [Example 42, 2-Hydroxy-6-(3,3,3-triphenylpropoxy)benzoic acid], for which the IC50 in assay [1] was found to be 85 µM.
The same measure, in the same setting: for `O=C(O)/C=C/c1cccc(OCCC(c2ccccc2)(c2ccccc2)c2ccccc2)c1` [Example 43, trans 3-(3,3,3-Triphenylpropoxy)cinnamic acid] the value was 40 µM; for `O=C(O)COc1cccc(OCCC(c2ccccc2)(c2ccccc2)c2ccccc2)c1` [Example 44, 3-(3,3,3-triphenylpropoxy)phenoxyacetic acid], 71 µM.
In assay [1], `O=C(O)COc1ccccc1OCCC(c1ccccc1)(c1ccccc1)c1ccccc1` [Example 45, 2-(3,3,3-triphenylpropoxy)phenoxyacetic acid] came in with an IC50 of 20 µM.
As for `O=C(O)CCCOc1cccc(OCCC(c2ccccc2)(c2ccccc2)c2ccccc2)c1` [Example 46, 4-[3-(3,3,3-triphenylpropoxy)phenoxy]butyric acid], the IC50 in assay [1] is 16 µM. This IC50 and that of the compound before are within 1.5-fold of each other.
